From paper PMC7118210 (Frontiers in Pharmacology, 2020)

Key:
[1] = Multiple-dose pharmacokinetics in rats; assay type: in vivo, Sprague Dawley rats
Description: The optimal volume and activity in unit volume of enzyme solution [0.2 M acetic acid/water solution: 0.2 M ammonium acetate/water solution, 15:35 (v/v)] were determined through a pretest of the enzyme (rat plasma, 10 μl, 10 U μl^-1; dog plasma, 10 μl, 10 U μl^-1; human plasma, 20 μl, 20 U μl^-1; human urine, 10 μl, 10 U μl^-1). After enzyme incubation, 10 μl of IS solution was added to the plasma and urine samples (2 μg ml^-1 quercetin 3-β-D-glucoside for rat and dog plasma; 583 ng ml^-1 naringin-D4 and 160 ng ml^-1 naringenin-D4 for human plasma; and 9,710 ng ml^-1 naringin-D4 and 6,000 ng ml^-1 naringenin-D4 for human urine). To each fecal sample, 9-fold methanol-normal saline (2:1, v/v) was added, mixed (18,000 rpm, 15 min) by vortexing and centrifuged (10 min, 9,000 rpm, 4°C). Next, 10 μl IS solution (971 ng ml^-1 naringin-D4 and 600 ng ml^-1 naringenin-D4) was added to the supernatants of feces (200 μl) without enzyme incubation. […] The solid material was dissolved with acetonitrile-water (1:1, v/v) and injected into the ultra high-performance liquid chromatography coupled with triple quadrupole mass spectrometry (UHPLC/MS/MS) system as described below. The analysis of nonclinical and clinical samples was performed with a UHPLC/MS/MS system that consisted of a Shimadzu Nexera X2 ultra high-performance liquid chromatography (UHPLC) (Shimadzu Corp., Kyoto, Japan) coupled with an AB Sciex API4000 triple-quadrupole mass spectrometry (MS/MS) system (AB Sciex, Foster City, CA, USA) equipped with an electrospray ionization source and controlled by Analyst (v. 1.6.2) software. […] The injection volume was 10 μl with the flow rate of 0.3 ml min^-1 for plasma, and 0.4 ml min^-1 for urine and feces. The compounds were detected by multiple reaction monitoring in the negative ion electrospray mode. The electrospray source conditions were as follows: ion source gas1 30 psi, ion source gas2 60 psi, curtain gas 20 psi, collisionally activated dissociation (CAD) gas 8 psi, temperature 500°C, and ion spray voltage −4,500 V. Zero air was used for ion source gas1 and ion source gas2 and nitrogen for curtain gas and CAD gas. […] All pharmacokinetic and excretion parameters were expressed as mean ± standard deviation (SD). All mean and SD values were reported to three significant figures. The pharmacokinetic parameters were calculated using the Phoenix WinNonlin software (Version 6.4, Pharsight Corp., Cary, NC, USA) and compared using the Student's t-test (p < 0.05) in SPSS 18.0 (SPSS Inc., Chicago, IL, USA). […] For the multiple-dose studies, pharmacokinetic parameters included the mean plasma level at steady state, Tmax, t1/2, the percent fluctuation, and the accumulation index (Table 3). […] In addition, we compared the pharmacokinetic parameters obtained from males and females (Tables 4–6).

[2] = Excretion in human urine and feces (mass balance); assay type: in vivo; conditions: for time within which excreted: humans
Description: All blood samples were transferred into heparin-treated centrifuge tubes and centrifuged for 10 min at 4,000 rpm and 4°C. All human urine samples were mixed and transferred (4 ml) into storage tubes. All biological samples were stored at −80°C.
The optimal volume and activity in unit volume of enzyme solution [0.2 M acetic acid/water solution: 0.2 M ammonium acetate/water solution, 15:35 (v/v)] were determined through a pretest of the enzyme (rat plasma, 10 μl, 10 U μl^-1; dog plasma, 10 μl, 10 U μl^-1; human plasma, 20 μl, 20 U μl^-1; human urine, 10 μl, 10 U μl^-1). […] To each fecal sample, 9-fold methanol-normal saline (2:1, v/v) was added, mixed (18,000 rpm, 15 min) by vortexing and centrifuged (10 min, 9,000 rpm, 4°C). […] Then, all plasma, urine, and fecal samples were extracted with ethyl acetate (rat plasma, 800 μl; dog plasma, 1,000 μl; human plasma, 3,000 μl; human urine, 3,000 μl; human feces, 3,000 μl) for at least 3 min by vortexing, centrifuged for 10 min at 3,900 rpm and 4°C; supernatants were transferred into centrifuge tubes and dried with N2. The solid material was dissolved with acetonitrile-water (1:1, v/v) and injected into the ultra high-performance liquid chromatography coupled with triple quadrupole mass spectrometry (UHPLC/MS/MS) system as described below.
The analysis of nonclinical and clinical samples was performed with a UHPLC/MS/MS system that consisted of a Shimadzu Nexera X2 ultra high-performance liquid chromatography (UHPLC) (Shimadzu Corp., Kyoto, Japan) coupled with an AB Sciex API4000 triple-quadrupole mass spectrometry (MS/MS) system (AB Sciex, Foster City, CA, USA) equipped with an electrospray ionization source and controlled by Analyst (v. 1.6.2) software. […] The mobile phase consisted of 0.1% formic acid (v/v) in water (A) and 0.1% formic acid in acetonitrile (B) using a linear gradient of 90% A (0–0.5 min), 90 to 60% A (0.5–1.5 min), 60% to 40% A (1.5–3.5 min), 40% to 10% A (3.5–4.5 min), 10% A (4.5–5.5 min), 10% to 90% A (5.5–6.0 min), and 90% A (6.0–7.5 min) for plasma; and 80% A (0–0.2 min), 80 to 64% A (0.2–2.0 min), 64% to 63% A (2.0–4.4 min), 63% to 0% A (4.4–4.5 min), 0% A (4.5–5.5 min), 0% to 90% A (5.5–5.6 min), 90% A (5.6–5.9 min), 90% to 35% A (5.9–6.0 min), 35% A (6.0–6.2 min), 35 to 80% A (6.2–6.3 min), and 80% A (6.3–7.5 min) for urine and feces. The injection volume was 10 μl with the flow rate of 0.3 ml min^-1 for plasma, and 0.4 ml min^-1 for urine and feces. The compounds were detected by multiple reaction monitoring in the negative ion electrospray mode. The electrospray source conditions were as follows: ion source gas1 30 psi, ion source gas2 60 psi, curtain gas 20 psi, collisionally activated dissociation (CAD) gas 8 psi, temperature 500°C, and ion spray voltage −4,500 V. Zero air was used for ion source gas1 and ion source gas2 and nitrogen for curtain gas and CAD gas.
Next, 9-fold normal saline, instead of ninefold methanol-normal saline (2:1, v/v), was added to maintain enzyme activity in the feces. […] These samples were maintained at 37°C for 12 h.

[3] = naringin 42 mg kg^-1 multiple dose, rat, female
[4] = naringin 42 mg kg^-1 multiple dose, rat, male
[5] = naringin 42 mg kg^-1 p.o. three times a day, multiple dose, rat
[6] = naringin 160 mg, three times a day, p.o., human
[7] = naringin 160 mg (high-fat diet) p.o., human

O=C1C[C@@H](c2ccc(O)cc2)Oc2cc(O)cc(O)c21 [naringenin, Naringenin]
CavSS [1, 3]: 600 ± 517 ng/mL
CavSS [1, 4]: 178 ± 90.8 ng/mL
CavSS [1, 5]: 389 ± 415 ng/mL
accumulation in multiple-dose study ([1]; rat, in vivo): no significant accumulation
time within which excreted [2]: ≤ 48 h
cumulative excretion in feces, Naringenin [2, 6]: 1.83 ± 2.32 % of dose
cumulative excretion in urine, Naringenin [2, 6]: 28.3 ± 43.2 % of dose

C[C@@H]1O[C@@H](O[C@H]2[C@H](Oc3cc(O)c4c(c3)O[C@H](c3ccc(O)cc3)CC4=O)O[C@H](CO)[C@@H](O)[C@@H]2O)[C@H](O)[C@H](O)[C@H]1O [naringin, Naringin]
CavSS [1, 3]: 17.4 ± 19.9 ng/mL
Fluctuation [1, 3]: 612 ± 233%
CavSS [1, 4]: 6.03 ± 9.48 ng/mL
Fluctuation [1, 4]: 844 ± 1,030%
CavSS [1, 5]: 11.7 ± 15.9 ng/mL
Fluctuation ([1]; naringin 42 mg kg^-1 p.o. three times a day, multiple dose, rat, (CmaxSS−CminSS)/CavSS×100%): 728 ± 711%
accumulation in multiple-dose study ([1]; rats): no significant accumulation
time within which excreted [2]: ≤ 48 h
cumulative excretion in feces, Naringin ([2]; naringin 40 mg p.o., human): 0.122 ± 0.202 % of dose
cumulative excretion in urine, Naringin ([2]; naringin 40 mg p.o., human): 0.067 ± 0.039 % of dose
cumulative excretion in feces, Naringin ([2]; naringin 80 mg p.o., human): 0.023 ± 0.036 % of dose
cumulative excretion in urine, Naringin ([2]; naringin 80 mg p.o., human): 0.037 ± 0.013 % of dose
cumulative excretion in feces, Naringin [2, 7]: 9.85 ± 20.0 % of dose
cumulative excretion in urine, Naringin [2, 7]: 0.025 ± 0.008 % of dose
cumulative excretion in feces, Naringin ([2]; naringin 160 mg p.o., human): 0.016 ± 0.023 % of dose
cumulative excretion in urine, Naringin ([2]; naringin 160 mg p.o., human): 0.027 ± 0.014 % of dose
cumulative excretion in feces, Naringin [2, 6]: 0.563 ± 1.00 % of dose
cumulative excretion in urine, Naringin [2, 6]: 0.034 ± 0.014 % of dose
cumulative excretion in feces, Naringin ([2]; naringin 320 mg p.o., human): 0.126 ± 0.325 % of dose
cumulative excretion in urine, Naringin ([2]; naringin 320 mg p.o., human): 0.033 ± 0.026 % of dose
cumulative excretion in feces, Naringin ([2]; naringin 480 mg p.o., human): 0.023 ± 0.033 % of dose
cumulative excretion in urine, Naringin ([2]; naringin 480 mg p.o., human): 0.012 ± 0.004 % of dose
